From paper PMC6013488, “A widely-applicable high-throughput cellular thermal shift assay (CETSA) using split Nano Luciferase” (Scientific Reports, 2018)
Where a name gives a salt, the structure may show the parent alone. Read-outs that look alike come from different tables or passages of the source.

Molecular target: T1, CDK9/cyclin K (Homo sapiens, UniProt P50750)
T1 construct: purchased Invitrogen (ThermoFisher) PV4335
Test: TR-FRET Lanthascreen Eu Kinase Binding assay
Settings: for Curve Class: classifies curves by quality of fit, efficacy and number of asymptotes; for Efficacy: difference between highest and lowest activity across concentration range; for Efficacy / Max Resp: in %
Excerpt: The TR-FRET Lanthascreen Eu Kinase Binding assay for CDK9/cyclin K was purchased from ThermoFisher and performed as per manufacturer instructions.

[1] = logarithm of AC50, read-out: Log AC50 (converted)
[2] = concentration at which half maximal activity is observed, 7-point qHTS, read-out: AC50

T1 sequence (P50750 whole entry): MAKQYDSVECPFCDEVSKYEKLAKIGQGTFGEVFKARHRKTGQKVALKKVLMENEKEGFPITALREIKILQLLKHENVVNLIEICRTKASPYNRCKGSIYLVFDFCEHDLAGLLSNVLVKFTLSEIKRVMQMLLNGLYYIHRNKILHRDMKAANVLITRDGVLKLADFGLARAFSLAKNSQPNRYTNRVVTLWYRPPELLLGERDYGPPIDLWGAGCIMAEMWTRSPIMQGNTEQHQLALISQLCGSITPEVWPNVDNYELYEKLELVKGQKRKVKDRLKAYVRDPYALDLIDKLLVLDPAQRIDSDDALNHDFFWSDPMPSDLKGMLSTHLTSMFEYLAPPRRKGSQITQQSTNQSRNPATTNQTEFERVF
T1 sequence (O75909 whole entry partner): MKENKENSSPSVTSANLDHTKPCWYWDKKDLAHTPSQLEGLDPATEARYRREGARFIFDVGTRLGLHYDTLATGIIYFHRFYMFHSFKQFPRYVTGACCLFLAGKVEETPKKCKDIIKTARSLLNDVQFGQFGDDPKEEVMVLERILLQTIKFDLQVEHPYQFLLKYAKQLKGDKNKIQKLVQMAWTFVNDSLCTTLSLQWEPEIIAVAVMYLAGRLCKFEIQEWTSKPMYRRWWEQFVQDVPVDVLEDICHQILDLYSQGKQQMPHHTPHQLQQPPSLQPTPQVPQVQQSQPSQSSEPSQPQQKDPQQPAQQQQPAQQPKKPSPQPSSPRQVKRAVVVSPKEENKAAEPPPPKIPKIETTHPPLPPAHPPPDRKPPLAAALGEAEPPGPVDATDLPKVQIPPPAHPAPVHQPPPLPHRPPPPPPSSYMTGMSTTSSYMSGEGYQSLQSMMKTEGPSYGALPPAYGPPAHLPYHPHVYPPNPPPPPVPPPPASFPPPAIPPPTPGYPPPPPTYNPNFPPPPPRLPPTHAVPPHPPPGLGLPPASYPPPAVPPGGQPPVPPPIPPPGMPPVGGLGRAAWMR

Structure (SMILES)	Curve Class	Efficacy	Max Resp	AC50 [1]	AC50 (AC50, concentration at which half maximal activity is observed, 7-point qHTS)	AC50 [2]
O=C1Nc2ccc3ncsc3c2/C1=C/Nc1ccc([S+](=O)([O-])Nc2ccccn2)cc1 [GW8510]	-1.1	-99.4	-92.5			
COc1ccc(-c2oc3ncnc(N)c3c2-c2ccc(NC(=O)Nc3cc(C(F)(F)F)ccc3F)cc2)cc1 [GW768505A]	-1.1	-85.9	-78.2	631 nM		
O=C(Nc1nc2ccccc2n1CCN1CCOCC1)c1cccc([N+](=O)[O-])c1 [IRAK-1-4 Inhibitor I]	-1.2	-75.6				
O=C1Nc2ccccc2/C1=C1/Nc2ccccc2/C1=N\OCCC(O)CO (stereo not shown) [Indirubin_E8]	-1.1	-83.1	-81.2			
Nc1nc(Nc2ccc(S(N)(=O)=O)cc2)nn1C(=O)c1c(F)cccc1F [JNJ7706621]	-1.1	-93.4	-97.5			
CN(C)C/C=C/C(=O)Nc1cccc(C(=O)Nc2ccc(Nc3nccc(-c4cccnc4)n3)cc2)c1 [JNK-IN-7]	-1.1	-86.0	-91.6			
CCOC(=O)c1c(/C(C#N)=C\N)c2ccc(Cl)c(Cl)c2n1C [KH-CB19]	-1.1	-88.2	-90.2		336 nM	
O=C1Cc2c([nH]c3ccc(Br)cc23)-c2ccccc2N1 [Kenpaullone]	-1.1	-80.5	-37.7			336 nM
COc1ccccc1-c1cc(Nc2cccc(C[S+](N)(=O)[O-])c2)ncn1 [LDC000067]	-1.1	-96.3	-94.5			
O=C1NC(=O)C(c2cnc3ccccn23)=C1c1cn2c3c(cc(F)cc13)CN(C(=O)N1CCCCC1)CC2 [LY2090314]	-1.1	-79.5	-83.9	631 nM		
CC(C)c1c2cc(-c3ccnc(N[C@H]4CC[C@H](NC5CCOCC5)CC4)n3)ccc2nn1C [LY2857785]	5	-28.1	-89.7			
C[C@@H](Oc1ccc2[nH]nc(/C=C/c3cnn(CCO)c3)c2c1)c1c(Cl)cncc1Cl [LY2874455]	-1.1	-87.6	-91.8			299 nM
Cc1ccc(C(N)=O)cc1Nc1nccc(-c2cn(C(C)C)c3cnccc23)n1 [NCGC00263020-01]	-1.1	-90.3	-99.8			
Cc1ccc([N+](=O)[O-])cc1[S+](=O)([O-])N(C)/N=C/c1cnc2ccc(Br)cn12 [NCGC00346500-05, PIK-75]	5	-24.5	-95.2			
N#Cc1ccnc(Nc2cc(C3CCN(C4COC4)CC3)cc(N3CCC(F)(F)C3)n2)c1 [NCGC00384250-01]	-1.2	-76.1	-87.1			189 nM
O=[N+]([O-])c1cccc2[nH]c(CNc3nc(N4CCOCC4)nc4c3ncn4-c3ccsc3)nc12 [NCGC00386926-01]	-1.2	-69.1	-72.6			
Cc1ccc([N+](=O)[O-])cc1[S+](=O)([O-])N(C)/N=C\c1cnc2ccc(Br)cn12 [NCGC00387028-01, PIK-75]	5	0.0	-93.4			
Oc1cc(CNC(=S)/C=C/c2cc(O)c(O)c(Br)c2)cc(O)c1O [NT 157]	-1.4	-60.3	-8.3			
C[S+](=O)([O-])N1CCC(NC(=O)c2[nH]ncc2NC(=O)c2c(Cl)cccc2Cl)CC1 [NVP-LCQ195]	-1.2	-72.2	-98.8			
CC(=O)c1cnc2ccc(-c3cc(Cl)c(O)c(Cl)c3)nc2c1N[C@H]1CC[C@H](CN(C)C)CC1 [OTSSP167]	-1.1	-82.5	-98.5			
CN(c1ncccc1CNc1nc(Nc2ccc3c(c2)CC(=O)N3)ncc1C(F)(F)F)[S+](C)(=O)[O-] [PF-562271]	-1.1	-92.3	-101.3			

Structure (SMILES)	Curve Class	Efficacy	Max Resp	AC50 [1]	AC50 (AC50, concentration at which half maximal activity is observed, 7-point qHTS)	AC50 [2]
CC(C)CC(=O)Nc1[nH]nc2c1CN(C(=O)C1CCN(C)CC1)C2(C)C [PHA-793887]	-1.1	-87.0	-99.5			
COc1ccccc1-c1c[nH]c2ncc(-c3cncc(C(=O)N(C)C)c3)cc12 [PPY A]	-1.1	-90.1	-95.0			
C1=C/COCc2cc(ccc2OCCN2CCCC2)Nc2nccc(n2)-c2cccc(c2)COC/1 [Pacritinib]	-1.2	-64.6	-95.3			
CC(=O)c1c(C)c2cnc(Nc3ccc(N4CCNCC4)cn3)nc2n(C2CCCC2)c1=O [Palbociclib (PD-0332991) HCl]	-1.1	-92.3	-91.0			
N[C@H]1CC[C@H](Nc2nc(Nc3ccc(C(=O)N4CCCCC4)cc3)c3ncn(-c4cccc(F)c4)c3n2)CC1 [Purfalcamine]	-1.2	-78.7	-96.3	631 nM		
CC(C)[C@H](CO)Nc1nc(Nc2cccc(Cl)c2)c2ncn(C(C)C)c2n1 [Purvalanol A]	-1.1	-79.6	-72.7			
O=C(NCc1cccc(O)c1)Nc1nc(-c2ccncc2)cs1 [RKI-1447]	-1.2	-64.8	-59.5			
Cc1cc(Nc2cc(NC(=O)c3c(Cl)cccc3Cl)ccn2)nc(N)n1 [RO495]	-1.1	-93.8	-99.1			
Cn1cc(C2=C(c3cn(CCCSC(=N)N)c4ccccc34)C(=O)NC2=O)c2ccccc21 [Ro 31-8220 (mesylate)]	-1.3	-42.0	-60.6			
CC[C@H](CO)Nc1nc(NCc2ccccc2)c2ncn(C(C)C)c2n1 [Roscovitine]	-1.1	-100.3	-97.7			
COc1ccc2c(c1)/C(=C/c1cnc[nH]1)C(=O)N2 [SU9516]	-1.1	-93.0	-90.2			
CCS(=O)(=O)c1cccc(-c2cc(C(=O)NC3CCN(C)CC3)c(C)c3[nH]c4ncc(C)cc4c23)c1 [TAK-901]	-1.1	-101.2	-96.3			
O=C1OC(/C=C/c2ccccc2)=NC/1=C\c1cccnc1 [TC-DAPK 6]	-1.2	-71.2	-68.2			
Oc1ccc(-c2ccc(-c3cc(Nc4cccc(CNC5CC5)c4)[nH]n3)cc2)c(O)c1 [TCS-2312]	-1.1	-85.0	-94.1			
CN1CCN(Cc2ccc(Nc3ncc(Cl)c(Nc4ccccc4S(=O)(=O)N(C)C)n3)cc2)CC1 [TP-0903]	-1.2	-74.0	-96.9			68.7 nM
N#C/C(=C\c1ccc(O)c(O)c1)C(=O)NCCCNC(=O)/C(C#N)=C/c1ccc(O)c(O)c1 [Tyrphostin AG 537]	-1.1	-98.0	-83.8			
CN[C@@H]1C[C@H]2O[C@@](C)([C@@H]1OC)n1c3ccccc3c3c4c(c5c6ccccc6n2c5c31)C(=O)N[C@H]4O [UCN-01]	-1.1	-83.5	-93.0			
CC[C@@](C)(Nc1ccnc(-c2c[nH]c3ncccc23)n1)C(=O)NCC(F)(F)F [VX-509 (Decernotinib)]	-1.1	-91.7	-97.1			
CN1CC[C@@H](c2c(O)cc(O)c3c(=O)cc(-c4ccc(C(F)(F)F)cc4Cl)oc23)[C@@H]1CO [Voruciclib]	-1.1	-95.6	-95.8			
CC(C)c1cc(CNc2nc(Nc3cc(C4CC4)[nH]n3)cc(N3CCN(C)CC3)n2)on1 [XL-228]	-1.1	-97.1	-96.7			
